How the values were obtained:
EMT-6 cells = experiment: Murine breast cancer efficacy model, EMT-6 allograft; format: in vivo, Balb/C female mice
Protocol: PAD4 is highly expressed in malignant tumours of various cell types, Here, the mouse mammary carcinoma of 4T1 and EMT6 cells were used as an experimental model. Mouse 4T1, and EMT-6, a breast cancer cell line was sourced from American Type Culture Collection (ATCC), USA. Cells were grown according to the product information. To establish allografts, the cells were harvested by trypsinization when they reached around 70 to 80% confluence. After harvesting, Balb/C female mice (7-8 weeks) were implanted with 4T1 (1 million cells/site) and EMT-6 (0.5 million cells/site) subcutaneously in the dorsal right flank of mice using a 1 mL BD syringe attached to a 24-gauge needle. When the tumors became palpable tumor measurement was initiated and at an approximate tumor volume of ˜110 and 93 mm3, respectively. Animals were randomized into different treatment groups keeping tumor volume and the number of animals/group similar across the groups and compound 143 treatment was initiated. […]
Tumor dimensions (length and breadth) were measured on days 1 (animal randomization based on tumor volume) and thrice weekly thereafter until study termination.
Tumor volumes were calculated using the formula (b2*1)*0.52 where l=length, b=breadth (Dusan Djokovic et al., BMC Cancer, 2010, 10:641). […]

DSS-induced colitis = experiment: Dextran sulfate sodium (DSS) induced colitis model; format: in vivo, C57BL/6 male mice; conditions: PO BID
Description: Ulcerative colitis (UC) is an intermittent inflammatory bowel disease of the colonic mucosa, with periods of exacerbated symptoms (the active phase of the disease), and periods that are relatively symptom-free (remission phase of disease). Among various chemical induced colitis models, DSS-induced colitis model is widely used because of its simplicity and many similarities with human ulcerative colitis. C57BL/6 male mice at 6-8 weeks of age were purchased from vivo biotech India (under the license from Taconic). The procedures involving the care and use of animals in the study was reviewed and approved by the Institutional Animal Care and Use Committee (IAEC/JDC/2018-161R) prior to conduct. During the study, the care and use of animals was in accordance with the principles outlined in the Guide for the Care and Use of Laboratory Animals, 8th Edition, 2010 (National Research Council) and every effort was made to minimize suffering. The animals were acclimatized for ˜10 days prior to experimental use. Mice were caged with free access to food and fresh water in a temperature-controlled room (22° C.-24° C.) on a 12 h light/dark cycle. On the day of DSS administration (day 0), labelled (using ear punch or any other convenient method) groups of control and experimental mice should be weighed and, if required, average group weight equilibrated so as to eliminate any significant weight difference between groups. Normal control animals were provided with regular drinking water and disease control animals were provided with 2.25% DSS in drinking water for 5 days (Day 1 to Day 5) and next 5 days, both the groups received regular drinking water (Day 6 to Day 10). DSS was replaced with fresh DSS formulation once in 2.5 days. Animals were dosed with Vehicle (0.5% Methyl cellulose in PBS+0.025% Tween-80), Compound 143, PO, bid and Fingolimod, PO, qd. Administration of 2.25% DSS in drinking water induced significant ulcerative colitis leading to ˜5-fold disease induction in mice of disease control group compared to normal control. […]

[1] = test system: NETosis in human neutrophils; experiment: NETosis assay (SYTOX green, flow cytometry); format: cell-based; conditions: Neutrophil, two independent NETosis assays, read-out: Average percent inhibition
Protocol: Neutrophils were isolated according to the EasySep Direct Human Neutrophil Isolation Kit. In short, 50 mL of blood sample was drawn in a vacutainer containing K2EDTA from a healthy donor. To the whole blood, the isolation cocktail of 50 μL/mL was added. Then, in the next step 50 μL/mL of RapidSpheres™ was added to the sample. The sample was mixed evenly with the pipette and incubated for 10 minutes at room temperature. After incubation, PBS containing 1 mM EDTA was added at the ratio of 1:1 to the blood. Then the sample tube was incubated for 10 minutes. The enriched cell suspension was transferred into a new tube and RapidSpheres™ were added at 50 μL/mL to this suspension, mixed and incubated for 10 minutes at room temperature. At this step, the enriched cell suspension was carefully collected as a clear fraction into a fresh tube. Then, previous tube was replaced with the fresh tube containing enriched cell suspension. After the final separation, the clear solution of enriched cell suspension was carefully transferred to fresh tube which was ready to use for the experiment. These cells were then subjected to wash twice with plain RPMI 1640 media without Fetal Bovine Serum (FBS) and centrifuged at 1500 rpm for 5 minutes at room temperature. Cell counts were performed on each sample by Invitrogen cell counter. After the cell count, cell density was adjusted according to the experiment and re-suspended in complete RPMI media containing RPMI1640, 2% BSA and 1 mM CaCl2.
Freshly isolated neutrophils from human donor were seeded at a density of 0.5×10^6 cells in 400 μL cell suspension/well in a 24-well plate and cells were pre-incubated with the compound for 30 minutes by adding 50 μL of the 10× concentration to achieve the final 1× concentration of compound (10 μM, 1 μM and 0.1 μM). 1% DMSO was added in control wells. […]
Average percent inhibition for compound 143 was calculated as 2% at 0.1 μM, 30% at 1 μM and 85% at 10 μM in two independent NETosis assays using human neutrophils.

## N[C@@H]1CCCN(C(=O)c2cc3c4c(c2)nc(-c2cc5cccc(Cl)c5n2CC2CC2)n4CCO3)C1 [Compound 143, (R)-(3-aminopiperidin-1-yl)(2-(7-chloro-1-(cyclopropylmethyl)-1H-indol-2-yl)-3,4-dihydro-5-oxa-1,2a-diazaacenaphthylen-7-yl)methanone]
EMT-6 cells; 50 mg/kg, BID, PO, day 13, EMT-6
  TGI (percent tumor growth inhibition): 42.6%
EMT-6 cells; EMT-6 bearing mice, BID PO for 13 days
  Body weight changes: no significant body weight changes
DSS-induced colitis; 12.5 mg/kg
  Disease reversal compared to disease control: 8.7%
DSS-induced colitis; 25 mg/kg
  Disease reversal compared to disease control: 26.6%
DSS-induced colitis; 50 mg/kg
  Disease reversal compared to disease control: 45.5%
[1]; at 0.1 μM
  inhibition at 0.1 µM: 2%
[1]; at 1 μM
  inhibition at 1 µM: 30%
[1]; at 10 μM
  inhibition at 10 µM: 85%
